One assay relates to HLA-A*24. Description: MHC binding assay, UV-ligand exchange with β2m ELISA, HLA-A*24 (Table 21). Details: species or system human. Particulars: binding to HLA-A*24 ranged by peptide exchange yield (UV-ligand exchange, β2m ELISA). The text has this:
(§1) Candidate peptides for T cell based therapies according to the present invention were further tested for their MHC binding capacity (affinity). The individual peptide-MHC complexes were produced by UV-ligand exchange, where a UV-sensitive peptide is cleaved upon UV-irradiation, and exchanged with the peptide of interest as analyzed. Only peptide candidates that can effectively bind and stabilize the peptide-receptive MHC molecules prevent dissociation of the MHC complexes. To determine the yield of the exchange reaction, an ELISA was performed based on the detection of the light chain ((β2m) of stabilized MHC complexes. The assay was performed as generally described in Rodenko et al. (Rodenko et al., 2006).
(§2) 96 well MAXISorp plates (NUNC) were coated over night with 2 ug/ml streptavidin in PBS at room temperature, washed 4× and blocked for 1 h at 37° C. in 2% BSA containing blocking buffer. Refolded HLA-A*02:01/MLA-001 monomers served as standards, covering the range of 15-500 ng/ml. Peptide-MHC monomers of the UV-exchange reaction were diluted 100 fold in blocking buffer. Samples were incubated for 1 h at 37° C., washed four times, incubated with 2 ug/ml HRP conjugated anti-β2m for 1 h at 37° C., washed again and detected with TMB solution that is stopped with […]. Absorption was measured at 450 nm. Candidate peptides that show a high exchange yield (preferably higher than 50%, most preferred higher than 75%) are generally preferred for a generation and production of antibodies or fragments thereof, and/or T cell receptors or fragments thereof, as they show sufficient avidity to the MHC molecules and prevent dissociation of the MHC complexes.
Background: An ELISA detects its analyte on a solid surface through an enzyme-linked reagent.

Another assay deals with HLA-A*02. Description: MHC binding assay, UV-ligand exchange with β2m ELISA, HLA-A*02 (Table 20). Details: species or system human. Particulars: binding to HLA-A*02 ranged by peptide exchange yield (UV-ligand exchange, β2m ELISA).
Text: as §1, §2

These results are taken from patent US20170189504A1, “NOVEL PEPTIDES AND COMBINATION OF PEPTIDES FOR USE IN IMMUNOTHERAPY AGAINST VARIOUS CANCERS” (immatics biotechnologies GmbH, priority 2015, published 2017).

Regarding “164 (KFSSFSLFF; listed as Homo sapiens) [compound 164]”, the Peptide exchange result in the assay with HLA-A*24 is recorded as “+++ (50%-75% = +++)”.
The same measure, in the same setting: with “170 (VYEDQVGKF; listed as Homo sapiens) [compound 170]” the entry was “++ (20%-49% = ++)”; with “171 (LFIPSSKLLFL; listed as Homo sapiens) [compound 171]”, “+++ (50%-75% = +++)”; with “172 (TYTTVPRVAF; listed as Homo sapiens) [compound 172]”, “++++ (≧75% = ++++)”.
For the substance “174 (VYVGGGQIIHL; listed as Homo sapiens) [compound 174]”, the Peptide exchange entry in the assay with HLA-A*24 is listed as “+++ (50%-75% = +++)”.
“175 (YYEVHKELF; listed as Homo sapiens) [compound 175]”: the Peptide exchange result in the assay on HLA-A*24 is given as “++++ (≧75% = ++++)”.
On to “177 (VYPWLGALL; listed as Homo sapiens) [compound 177]”, for which, in the assay with HLA-A*24, the Peptide exchange result is “++++ (≧75% = ++++)”.
As to “178 (IFIEVFSHF; listed as Homo sapiens) [compound 178]”, the Peptide exchange result with HLA-A*24 is listed as “+++ (50%-75% = +++)”.
For “179 (MYDSYWRQF; listed as Homo sapiens) [compound 179]”, the Peptide exchange result in the assay with HLA-A*24 is “++++ (≧75% = ++++)”.
For “180 (IYDDSFIRPVTF; listed as Homo sapiens) [compound 180]”, the Peptide exchange entry in the assay on HLA-A*24 is “+++ (50%-75% = +++)”.
“181 (LYLDIINLF; listed as Homo sapiens) [compound 181]”: in the assay with HLA-A*24, the Peptide exchange result is on record as “++++ (≧75% = ++++)”.
Still for that read-out and setting: under “182 (IYQLDTASI; listed as Homo sapiens) [compound 182]” stands “+++ (50%-75% = +++)”; under “183 (VFTSTARAF; listed as Homo sapiens) [compound 183]”, “+++ (50%-75% = +++)”; under “184 (VFQNFPLLF; listed as Homo sapiens) [compound 184]”, “++++ (≧75% = ++++)”.
Regarding “185 (IYKVGAPTI; listed as Homo sapiens) [compound 185]”, the Peptide exchange result with HLA-A*24 was “+++ (50%-75% = +++)”.
As for “186 (IFPQFLYQF; listed as Homo sapiens) [compound 186]”, in the assay with HLA-A*24, the Peptide exchange result was “++++ (≧75% = ++++)”.
As for “187 (TYLRDQHFL; listed as Homo sapiens) [compound 187]”, in the assay with HLA-A*24, the Peptide exchange entry is listed as “++++ (≧75% = ++++)”.
Take “188 (RYFKGLVF; listed as Homo sapiens) [compound 188]”: in the assay with HLA-A*24, the Peptide exchange result is “+++ (50%-75% = +++)”.
On to “189 (WYVNGVNYF; listed as Homo sapiens) [compound 189]”, for which, in the assay on HLA-A*24, the Peptide exchange result is “++ (20%-49% = ++)”.
For the substance “190 (GFFIFNERF; listed as Homo sapiens) [compound 190]”, the Peptide exchange entry in the assay with HLA-A*24 is “+++ (50%-75% = +++)”.
As for “191 (VFKASKITF; listed as Homo sapiens) [compound 191]”, the Peptide exchange entry with HLA-A*24 is reported as “+++ (50%-75% = +++)”.
Consider “192 (SYALLTYMI; listed as Homo sapiens) [compound 192]”, for which, in the assay on HLA-A*24, the Peptide exchange result is “++++ (≧75% = ++++)”.
Same read-out and setting: under “193 (RFHPTPLLL; listed as Homo sapiens) [compound 193]” stands “++++ (≧75% = ++++)”; under “194 (EFGSLHLEFL; listed as Homo sapiens) [compound 194]”, “+ (<20% = +)”; under “195 (TYSVSFPMF; listed as Homo sapiens) [compound 195]”, “++++ (≧75% = ++++)”.
Still for that read-out and setting: under “198 (LYLDKATLI; listed as Homo sapiens) [compound 198]” stands “+++ (50%-75% = +++)”; under “201 (IYATEAHVF; listed as Homo sapiens) [compound 201]”, “+++ (50%-75% = +++)”; under “202 (VYWDSAGAAHF; listed as Homo sapiens) [compound 202]”, “++++ (≧75% = ++++)”.
For “203 (FYSRLLQKF; listed as Homo sapiens) [compound 203]”, in the assay with HLA-A*24, the Peptide exchange result is “+++ (50%-75% = +++)”.
As for “205 (VHIPEVYLI; listed as Homo sapiens) [compound 205]”, the Peptide exchange result in the assay on HLA-A*24 was “+++ (50%-75% = +++)”.
In the case of “206 (EYQENFLSF; listed as Homo sapiens) [compound 206]”, the Peptide exchange result in the assay with HLA-A*24 is reported as “+++ (50%-75% = +++)”.
Still for that read-out and setting: under “208 (TYTQDFNKF; listed as Homo sapiens) [compound 208]” stands “+++ (50%-75% = +++)”; under “209 (TYKDEGNDYF; listed as Homo sapiens) [compound 209]”, “+++ (50%-75% = +++)”; under “210 (IYTMIYRNL; listed as Homo sapiens) [compound 210]”, “++++ (≧75% = ++++)”.
In the case of “211 (YYLEVGKTLI; listed as Homo sapiens) [compound 211]”, the Peptide exchange entry in the assay on HLA-A*24 is “++++ (≧75% = ++++)”.
“214 (LYLKLWNLI; listed as Homo sapiens) [compound 214]”: the Peptide exchange result in the assay with HLA-A*24 is “+++ (50%-75% = +++)”.
Regarding “215 (YFDKVVTL; listed as Homo sapiens) [compound 215]”, in the assay on HLA-A*24, the Peptide exchange result is “++ (20%-49% = ++)”.
On to “216 (QYSSVFKSL; listed as Homo sapiens) [compound 216]”, for which, in the assay with HLA-A*24, the Peptide exchange result is reported as “++++ (≧75% = ++++)”.
In the case of “217 (FFPPTRQMGLLF; listed as Homo sapiens) [compound 217]”, the Peptide exchange result with HLA-A*24 is on record as “++++ (≧75% = ++++)”.
As for “219 (EYPLVINTL; listed as Homo sapiens) [compound 219]”, the Peptide exchange entry with HLA-A*24 is “+++ (50%-75% = +++)”.
Still for that read-out and setting: with “221 (RYSTGLAGNLL; listed as Homo sapiens) [compound 221]” the entry was “+++ (50%-75% = +++)”; with “223 (KYIPYKYVI; listed as Homo sapiens) [compound 223]”, “+++ (50%-75% = +++)”.
For the substance “224 (QYLENLEKL; listed as Homo sapiens) [compound 224]”, the Peptide exchange result in the assay on HLA-A*24 was “+++ (50%-75% = +++)”.
“225 (YYVYIMNHL; listed as Homo sapiens) [compound 225]”: the Peptide exchange entry with HLA-A*24 is “+++ (50%-75% = +++)”.
Turning to “226 (VYRDETGELF; listed as Homo sapiens) [compound 226]”, the Peptide exchange result in the assay on HLA-A*24 was “+++ (50%-75% = +++)”.
For “227 (IFLDYEAGTLSF; listed as Homo sapiens) [compound 227]”, the Peptide exchange entry with HLA-A*24 is “++++ (≧75% = ++++)”.
As for “228 (KYTSWYVAL; listed as Homo sapiens) [compound 228]”, the Peptide exchange entry in the assay with HLA-A*24 is “++++ (≧75% = ++++)”.
Regarding “252 (RLMEICESL; listed as Homo sapiens) [compound 252]”, in the assay with HLA-A*02, the Peptide exchange result is recorded as “+++ (50%-75% = +++)”.
For “253 (ALAELIDNSL; listed as Homo sapiens) [compound 253]”, the Peptide exchange result in the assay with HLA-A*02 is reported as “+++ (50%-75% = +++)”.
The same measure, in the same setting: with “254 (KLQGKLPEL; listed as Homo sapiens) [compound 254]” the entry was “++ (20%-49% = ++)”.
As to “255 (SLLHFTENL; listed as Homo sapiens) [compound 255]”, in the assay with HLA-A*02, the Peptide exchange entry is given as “+++ (50%-75% = +++)”.
Take “256 (SLGEEQFSV; listed as Homo sapiens) [compound 256]”: in the assay with HLA-A*02, the Peptide exchange result is given as “++ (20%-49% = ++)”.
Take “257 (GLYTDPCGV; listed as Homo sapiens) [compound 257]”: the Peptide exchange result in the assay on HLA-A*02 is listed as “++++ (≧75% = ++++)”.
With “258 (LLSERFINV; listed as Homo sapiens) [compound 258]”, the Peptide exchange result with HLA-A*02 is “++++ (≧75% = ++++)”.
On the same count and under the same terms, with “259 (ILLPRIIEA; listed as Homo sapiens) [compound 259]” the entry was “+++ (50%-75% = +++)”; with “260 (ILLEKILSL; listed as Homo sapiens) [compound 260]”, “+++ (50%-75% = +++)”.
As for “261 (QLQDRVYAL; listed as Homo sapiens) [compound 261]”, the Peptide exchange result in the assay on HLA-A*02 was “+++ (50%-75% = +++)”.
On the same count and under the same terms, under “262 (FMVDKAIYL; listed as Homo sapiens) [compound 262]” stands “+++ (50%-75% = +++)”; under “263 (VLLSEQGDVKL; listed as Homo sapiens) [compound 263]”, “++ (20%-49% = ++)”.
With “264 (KLFPQETLFL; listed as Homo sapiens) [compound 264]”, the Peptide exchange entry with HLA-A*02 is given as “+++ (50%-75% = +++)”.
Consider “265 (NTCPYVHNI; listed as Homo sapiens) [compound 265]”, for which the Peptide exchange entry with HLA-A*02 is “+++ (50%-75% = +++)”.
Turning to “266 (YAIGLVMRL; listed as Homo sapiens) [compound 266]”, the Peptide exchange entry with HLA-A*02 is listed as “+++ (50%-75% = +++)”.
For “267 (KYMVYPQTF; listed as Homo sapiens) [compound 267]”, the Peptide exchange result in the assay with HLA-A*24 was “++++ (≧75% = ++++)”.
For the substance “270 (NYYEVHKELF; listed as Homo sapiens) [compound 270]”, in the assay on HLA-A*24, the Peptide exchange entry was “+++ (50%-75% = +++)”.
